Values of other authors in patent US4020157A, “Shortened analogs of somatostatin” (Ayerst McKenna and Harrison Ltd., priority 1975, dated 1977).

Settings: reported by D. Sarantakis et al.

[Ala^3,14 ]-somatostatin (AGAKNFFWKTFTSA; Somatostatin-14; UniProt P61278 103-116, looked up, variant C3A C14A) [somatostatin analog synthesized by solid phase methods (Sarantakis et al.)]
activity as % of the potency of somatostatin: about 0.01%
